Results from ChEMBL document CHEMBL4219095, “Synthesis and biological evaluation of 4,6-diaryl-2-pyrimidinamine derivatives as anti-breast cancer agents” (Bioorg Med Chem Lett, 2018).
Activity calls are given as the source filed them. The rule behind the calls is not given here.

What was measured:
HUVEC = test: Antiproliferative activity against HUVEC after 48 hrs by MTT assay; type: functional, cell-based; details: Homo sapiens
Ishikawa [1] = test: Antiproliferative activity against human Ishikawa cells after 48 hrs by MTT assay; type: functional, cell-based
MCF7 [2] = test: Antiproliferative activity against human MCF7 cells after 48 hrs by MTT assay; type: functional, cell-based; details: MCF7, 48 h
Chorioallantoic membrane = test: Antiangiogenic activity in chicken fertilized egg chorioallantoic membrane at 1 to 20 uM measured after 72 hrs; type: functional, tissue-based; details: Gallus gallus
Ishikawa [3] = test: Stimulation of cell proliferation in human Ishikawa cells at 10 uM after 48 hrs by MTT assay; type: ADME, cell-based
Ishikawa [4] = test: Antiproliferative activity against human Ishikawa cells at >40 uM after 48 hrs by MTT assay; type: functional, cell-based
MCF7 [5] = test: Effect on PgR mRNA expression in human MCF7 cells at 1 uM by SYBR Green dye based RT-PCR analysis; type: functional, cell-based
[6] = molecular target: Vascular endothelial growth factor receptor 2 (Homo sapiens) (UniProt P35968); details: HUVEC, at 1 µM
Chain of Vascular endothelial growth factor receptor 2 (Homo sapiens) (P35968 whole entry): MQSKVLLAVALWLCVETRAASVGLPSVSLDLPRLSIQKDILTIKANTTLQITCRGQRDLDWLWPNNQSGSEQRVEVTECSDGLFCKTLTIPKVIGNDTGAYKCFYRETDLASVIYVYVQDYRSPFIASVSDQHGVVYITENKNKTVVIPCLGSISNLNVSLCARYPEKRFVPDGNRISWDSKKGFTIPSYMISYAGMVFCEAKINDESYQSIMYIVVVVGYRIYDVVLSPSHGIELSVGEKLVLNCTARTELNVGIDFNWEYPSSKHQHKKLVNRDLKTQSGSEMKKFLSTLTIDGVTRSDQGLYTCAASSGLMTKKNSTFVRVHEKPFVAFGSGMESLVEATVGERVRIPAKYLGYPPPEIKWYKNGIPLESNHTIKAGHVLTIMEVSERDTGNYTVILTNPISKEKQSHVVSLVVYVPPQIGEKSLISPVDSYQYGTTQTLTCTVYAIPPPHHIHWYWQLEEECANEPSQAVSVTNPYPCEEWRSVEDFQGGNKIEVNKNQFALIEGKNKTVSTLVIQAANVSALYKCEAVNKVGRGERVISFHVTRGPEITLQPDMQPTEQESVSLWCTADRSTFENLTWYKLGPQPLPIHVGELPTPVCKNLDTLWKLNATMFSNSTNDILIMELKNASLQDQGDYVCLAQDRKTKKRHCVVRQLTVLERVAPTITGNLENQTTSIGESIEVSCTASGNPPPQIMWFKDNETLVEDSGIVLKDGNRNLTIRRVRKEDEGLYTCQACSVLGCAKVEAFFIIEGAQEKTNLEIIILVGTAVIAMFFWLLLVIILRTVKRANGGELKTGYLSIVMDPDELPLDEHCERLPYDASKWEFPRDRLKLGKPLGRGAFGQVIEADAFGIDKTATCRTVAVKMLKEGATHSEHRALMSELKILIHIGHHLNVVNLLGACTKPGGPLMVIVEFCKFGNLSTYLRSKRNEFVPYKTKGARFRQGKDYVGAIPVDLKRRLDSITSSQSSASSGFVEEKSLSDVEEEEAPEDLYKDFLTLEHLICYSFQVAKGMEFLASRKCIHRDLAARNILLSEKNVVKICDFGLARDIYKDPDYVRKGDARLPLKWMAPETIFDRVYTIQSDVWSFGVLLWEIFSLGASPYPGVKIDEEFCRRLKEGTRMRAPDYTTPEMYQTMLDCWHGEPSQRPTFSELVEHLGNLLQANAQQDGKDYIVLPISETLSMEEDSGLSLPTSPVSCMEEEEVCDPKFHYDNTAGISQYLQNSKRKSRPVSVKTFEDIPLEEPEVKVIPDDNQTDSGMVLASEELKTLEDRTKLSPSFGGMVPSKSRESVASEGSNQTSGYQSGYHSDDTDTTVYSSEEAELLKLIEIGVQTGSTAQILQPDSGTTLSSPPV
Description: Inhibition of VEGFR2 phosphorylation in HUVEC at 1 uM after 24 hrs by Western blot analysis

Row | IC50 (MCF7 [2]) | inhibition [6] | SMILES | IC50 (HUVEC) | IC50 (Ishikawa [1]) | Activity (Chorioallantoic membrane) | Activity (Ishikawa [3]) | Activity (Ishikawa [4]) | Activity (MCF7 [5])
1 | 19.7 µM | – | O=C(CN1CCCC1)Nc1ccc(Nc2nc(-c3ccc(O)cc3)cc(-c3ccc(O)cc3)n2)cc1 | 7 µM | 8.3 µM | – | – | – | –
2 | 3.4 µM | – | COc1ccc(-c2cc(-c3ccc(O)cc3)nc(Nc3ccc(NC(=O)CN(C)C)cc3)n2)cc1 | 3.8 µM | 6.3 µM | – | – | – | –
3 | 2.5 µM | – | COc1ccc(-c2cc(-c3ccc(OC)cc3)nc(Nc3ccc(NC(=O)CN(C)C)cc3)n2)cc1 | 2.8 µM | 3.6 µM | – | – | – | –
4 | 33.1 µM | – | COc1ccc(-c2cc(-c3ccc(OC)cc3)nc(Nc3ccc(NC(=O)CN4CCOCC4)cc3)n2)cc1 | – | – | – | – | – | –
5 | 4.2 µM | – | COc1ccc(-c2cc(-c3ccc(OC)cc3)nc(Nc3ccc(OCCN4CCN(C)CC4)cc3)n2)cc1 | 3 µM | 5.7 µM | – | – | – | –
6 | 4.8 µM | – | COc1ccc(-c2cc(-c3ccc(O)cc3)nc(Nc3ccc(OCCN4CCN(C)CC4)cc3)n2)cc1 | 2.4 µM | 5.3 µM | – | – | – | –
7 | 19.4 µM | – | CN(C)CCOc1ccc(Nc2nc(-c3ccc(O)cc3)cc(-c3ccc(O)cc3)n2)cc1 | 4.7 µM | 1.6 µM | – | – | – | –
8 | 19.2 µM | – | COc1ccc(-c2cc(-c3ccc(O)cc3)nc(Nc3ccc(NC(=O)CN4CCOCC4)cc3)n2)cc1 | 10.2 µM | 42.2 µM | – | – | – | –
9 | 5 µM | – | CCN(CC)CCOc1ccc(Nc2nc(-c3ccc(OC)cc3)cc(-c3ccc(OC)cc3)n2)cc1 | 2.2 µM | 4.3 µM | – | – | – | –
10 | 5.1 µM | – | CCN(CC)CCOc1ccc(Nc2nc(-c3ccc(O)cc3)cc(-c3ccc(O)cc3)n2)cc1 | 2.5 µM | 4.8 µM | – | – | – | –
11 | 5.2 µM | – | CN1CCN(CC(=O)Nc2ccc(Nc3nc(-c4ccc(O)cc4)cc(-c4ccc(O)cc4)n3)cc2)CC1 | 6.8 µM | 4.9 µM | – | – | – | –
12 | 32.4 µM | – | COc1ccc(-c2cc(-c3ccc(OC)cc3)nc(Nc3ccc(OCCN4CCCCC4)cc3)n2)cc1 | 5.4 µM | 1.9 µM | – | – | – | –
13 | 1.8 µM | – | COc1ccc(-c2cc(-c3ccc(OC)cc3)nc(Nc3ccc(NC(=O)CN4CCN(C)CC4)cc3)n2)cc1 | 5 µM | 5.7 µM | – | – | – | –
14 | 26.4 µM | – | O=C(CN1CCCCC1)Nc1ccc(Nc2nc(-c3ccc(O)cc3)cc(-c3ccc(O)cc3)n2)cc1 | 7.4 µM | 13.5 µM | – | – | – | –
15 | 4.5 µM | – | COc1ccc(-c2cc(-c3ccc(O)cc3)nc(Nc3ccc(NC(=O)CN4CCCC4)cc3)n2)cc1 | 2.3 µM | 5.5 µM | – | – | – | –
16 | 2.6 µM | – | COc1ccc(-c2cc(-c3ccc(OC)cc3)nc(Nc3ccc(OCCN4CCCC4)cc3)n2)cc1 | 2.1 µM | 3.9 µM | – | – | – | –
17 | 5.2 µM | – | CN1CCN(CCOc2ccc(Nc3nc(-c4ccc(O)cc4)cc(-c4ccc(O)cc4)n3)cc2)CC1 | 2.5 µM | 5.4 µM | – | – | – | –

Row | IC50 (MCF7 [2]) | inhibition [6] | SMILES | IC50 (HUVEC) | IC50 (Ishikawa [1]) | Activity (Chorioallantoic membrane) | Activity (Ishikawa [3]) | Activity (Ishikawa [4]) | Activity (MCF7 [5])
18 | 4.6 µM | – | COc1ccc(-c2cc(-c3ccc(O)cc3)nc(Nc3ccc(OCCN4CCCC4)cc3)n2)cc1 | 3.1 µM | 5.9 µM | – | – | – | –
19 | – | – | Oc1ccc(-c2cc(-c3ccc(O)cc3)nc(Nc3ccc(OCCN4CCOCC4)cc3)n2)cc1 | 74.9 µM | – | – | – | – | –
20 | 27 µM | – | CCN(CC)CC(=O)Nc1ccc(Nc2nc(-c3ccc(O)cc3)cc(-c3ccc(O)cc3)n2)cc1 | 19 µM | 17.3 µM | – | – | – | –
21 | – | – | CCN(CC)CCNC(=O)c1c(C)[nH]c(/C=C2\C(=O)Nc3ccc(F)cc32)c1C [SUNITINIB] | 3 µM | – | Active | – | – | –
22 | 39.5 µM | – | CN(C)CC(=O)Nc1ccc(Nc2nc(-c3ccc(O)cc3)cc(-c3ccc(O)cc3)n2)cc1 | 60.6 µM | 8 µM | – | – | – | –
23 | 49 µM | – | CCN(CC)CC(=O)Nc1ccc(Nc2nc(-c3ccc(O)cc3)cc(-c3ccc(OC)cc3)n2)cc1 | 22 µM | 16.4 µM | – | – | – | –
24 | > 100 µM | – | COc1ccc(-c2cc(-c3ccc(O)cc3)nc(Nc3ccc(NC(=O)CN4CCCCC4)cc3)n2)cc1 | 10.6 µM | 1.4 µM | – | – | – | –
25 | 6.1 µM | – | Oc1ccc(-c2cc(-c3ccc(O)cc3)nc(Nc3ccc(OCCN4CCCCC4)cc3)n2)cc1 | 4.6 µM | 5 µM | – | – | – | –
26 | 3.6 µM | – | COc1ccc(-c2cc(-c3ccc(O)cc3)nc(Nc3ccc(OCCN(C)C)cc3)n2)cc1 | 4.7 µM | 5.2 µM | – | – | – | –
27 | – | – | CC/C(=C(\c1ccccc1)c1ccc(OCCN(C)C)cc1)c1ccccc1 [TAMOXIFEN] | – | – | – | Toxic | Active | inactive
28 | 17.1 µM | – | COc1ccc(-c2cc(-c3ccc(O)cc3)nc(Nc3ccc(OCCN4CCCCC4)cc3)n2)cc1 | 4.5 µM | 4.8 µM | – | – | – | –
29 | 5.6 µM | – | CCN(CC)CCOc1ccc(Nc2nc(-c3ccc(O)cc3)cc(-c3ccc(OC)cc3)n2)cc1 | 3.5 µM | 6.4 µM | – | – | – | –
30 | 3.6 µM | – | COc1ccc(-c2cc(-c3ccc(OC)cc3)nc(Nc3ccc(OCCN(C)C)cc3)n2)cc1 | 4.6 µM | 5.1 µM | – | – | – | –
31 | 15.6 µM | – | O=C(CN1CCOCC1)Nc1ccc(Nc2nc(-c3ccc(O)cc3)cc(-c3ccc(O)cc3)n2)cc1 | 47 µM | 60.4 µM | – | – | – | –
32 | 4.1 µM | – | COc1ccc(-c2cc(-c3ccc(O)cc3)nc(Nc3ccc(NC(=O)CN4CCN(C)CC4)cc3)n2)cc1 | 4.7 µM | 4.2 µM | – | – | – | –
33 | 57 µM | – | Oc1ccc(-c2cc(-c3ccc(O)cc3)nc(Nc3ccc(OCCN4CCCC4)cc3)n2)cc1 | 4.7 µM | 4.5 µM | – | – | – | –
34 | 2.2 µM | Active | COc1ccc(-c2cc(-c3ccc(OC)cc3)nc(Nc3ccc(NC(=O)CN4CCCC4)cc3)n2)cc1 | 2.5 µM | 1.9 µM | Active | – | – | inactive
